Measured values as given in BindingDB's records for doi:10.7270/Q2HQ3XB9 (Nmmlsc, 2008).
pEC50: −log10 of the molar value.

Target: T1, Estrogen receptor (Homo sapiens, UniProt P03372)
T1 sequence (P03372 whole entry): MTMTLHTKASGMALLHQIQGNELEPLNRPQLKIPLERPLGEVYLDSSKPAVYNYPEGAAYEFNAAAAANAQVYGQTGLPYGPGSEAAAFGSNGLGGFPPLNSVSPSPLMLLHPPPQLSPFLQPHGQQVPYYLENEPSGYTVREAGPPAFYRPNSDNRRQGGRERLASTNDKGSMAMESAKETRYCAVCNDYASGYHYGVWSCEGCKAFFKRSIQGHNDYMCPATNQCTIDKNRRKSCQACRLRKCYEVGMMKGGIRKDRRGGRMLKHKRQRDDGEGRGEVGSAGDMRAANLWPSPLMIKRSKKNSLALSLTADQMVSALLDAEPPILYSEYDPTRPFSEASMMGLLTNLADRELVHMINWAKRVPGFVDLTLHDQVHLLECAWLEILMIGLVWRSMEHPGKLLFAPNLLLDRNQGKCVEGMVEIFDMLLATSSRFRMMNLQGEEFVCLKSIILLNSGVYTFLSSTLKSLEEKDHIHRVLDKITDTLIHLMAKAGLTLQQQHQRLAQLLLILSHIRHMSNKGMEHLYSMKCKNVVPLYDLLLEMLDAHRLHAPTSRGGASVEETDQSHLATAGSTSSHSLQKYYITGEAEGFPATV
Assay: fluorescent estrogen displacement from ERalpha – cell-based, Cos7 ERalpha-GFP, flow cytometry, dose response (AID 1223)
Settings: not given

Row | Structure (SMILES) | pEC50
1 | Brc1cc2c(cc1[C@@H]1Nc3ccccc3[C@@H]3C=CC[C@@H]31)OCO2 | 6.11
2 | CC(=O)c1ccc2c(c1)C1C=CCC1C(c1cccc([N+](=O)[O-])c1)N2 (stereo not given) [1-[4-(3-nitrophenyl)-3a,4,5,9b-tetrahydro-3H-cyclopenta[c]quinolin-8-yl]ethanone] | < 5.00
3 | COc1ccccc1N1CCN(C(=O)c2ccc3nc(-c4ccco4)c(-c4ccco4)nc3c2)CC1 [2,3-di-2-furyl-6-{[4-(2-methoxyphenyl)piperazin-1-yl]carbonyl}quinoxaline] | 7.81
4 | O=C(Nc1cc(C(F)(F)F)ccc1N1CCOCC1)C1Cc2ccccc2CN1C(=O)c1ccco1 (stereo not given) [2-(2-furoyl)-N-[2-morpholino-5-(trifluoromethyl)phenyl]-3,4-dihydro-1H-isoquinoline-3-carboxamide] | 6.43
5 | Cc1cc(C)cc(OCC(=O)Nc2ccc(N3CCCC3)cc2)c1 [2-(3,5-dimethylphenoxy)-N-(4-pyrrolidin-1-ylphenyl)acetamide] | < 5.00
6 | COc1nc(-c2ccc(Cl)cc2)ccc1-c1noc(-c2ccco2)n1 [3-[6-(4-chlorophenyl)-2-methoxy-3-pyridinyl]-5-(2-furanyl)-1,2,4-oxadiazole] | 7.31
7 | CC(=O)Oc1ccc(C2Nc3c(C(=O)O)ccc([N+](=O)[O-])c3C3C=CCC32)cc1 (stereo not given) [4-(4-acetoxyphenyl)-9-nitro-3a,4,5,9b-tetrahydro-3H-cyclopenta[c]quinoline-6-carboxylic acid] | < 5.00
8 | CCn1c(=NC(=O)c2ccc(-n3c(O)ccc3O)cc2)sc2c(OC)ccc(OC)c21 [4-[2,5-bis(oxidanylidene)pyrrolidin-1-yl]-N-(3-ethyl-4,7-dimethoxy-1,3-benzothiazol-2-ylidene)benzamide] | < 5.00
9 | O=C(COC(=O)CCC(=O)c1cccs1)NCc1ccco1 [4-keto-4-(2-thienyl)butyric acid [2-(2-furfurylamino)-2-keto-ethyl] ester] | 8.37
10 | Cc1cc(C)c2c(c1)[C@@H]1C=CC[C@@H]1[C@H](c1ccc(S(=O)(=O)N3CCOCC3)cc1)N2 [(3aS,4R,9bR)-6,8-dimethyl-4-[4-(morpholin-4-ylsulfonyl)phenyl]-3a,4,5,9b-tetrahydro-3H-cyclopenta[c]quinoline] | 7.35
11 | C[C@]12CC[C@@H]3c4ccc(O)cc4[C@@H](O)C[C@H]3[C@@H]1CC[C@@H]2O [(6S,8R,9S,13S,14S,17S)-13-methyl-6,7,8,9,11,12,14,15,16,17-decahydrocyclopenta[a]phenanthrene-3,6,17-triol] | 7.44
12 | COc1ccc(C(=O)NN=C(C)c2ccc3c(c2)C2C=CCC2C(c2ccccc2)N3)cc1 (stereo not given) [SMR000176871] | 5.84

Same assay, conditions: inactive by the depositor's call

Row | Structure (SMILES) | pEC50
13 | COc1cccc(NS(=O)(=O)c2ccc3c(c2)C2C=CCC2C(c2ccc(C(=O)O)cc2)N3)c1 (stereo not given) | 5.41
14 | COc1ccc(NS(=O)(=O)c2ccc3c(c2)[C@H]2C=CC[C@H]2[C@@H](c2ccc(C(=O)O)cc2)N3)cc1 | 5.44
15 | O=C(OCC(=O)N1CCN(C(=O)c2ccco2)CC1)c1cc(-c2ccco2)nc2ccccc12 [2-(2-furanyl)-4-quinolinecarboxylic acid [2-[4-[2-furanyl(oxo)methyl]-1-piperazinyl]-2-oxoethyl] ester] | 7.47
16 | Cc1nnc(SCC(=O)NC(=O)NCc2ccco2)n1Cc1ccccc1 [2-[(4-benzyl-5-methyl-1,2,4-triazol-3-yl)sulfanyl]-N-(furan-2-ylmethylcarbamoyl)acetamide] | 7.35
17 | O=C(O)c1cc(Cl)c2c(c1)[C@@H]1C=CC[C@@H]1[C@H](c1ccc(S(=O)(=O)N3CCOCC3)cc1)N2 [(3aS,4R,9bR)-6-chloranyl-4-(4-morpholin-4-ylsulfonylphenyl)-3a,4,5,9b-tetrahydro-3H-cyclopenta[c]quinoline-8-carboxylic acid] | 6.00
18 | Cc1cc(C(=O)Nc2sc3c(c2C#N)CCC3)no1 [MLS000066325] | 8.50
19 | Cn1ccnc1SCC(=O)Nc1ccc2nc(SCC(=O)NC3CC3)sc2c1 [MLS000085771] | 7.61
20 | COc1ccc(CNC(=O)c2cc(-c3cccs3)on2)cc1 [MLS000087249] | 8.01
